The values below come from PubChem BioAssay AID328 (DTP/NCI, 2004).

The subject of this assay is BDF1 mice, P388 leukemia ip, median survival T/C. Kind of assay: NCI In Vivo Anticancer Drug Screen. Data for tumor model P388 Leukemia (intraperitoneal) in B6D2F1 (BDF1) mice. The note with it: endpoint: median survival time, higher = longer survival. In short, it runs like this: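 Antitumour effect was judged in vivo: survival in drug-treated mice, normalised to that of vehicle-dosed controls, gives the reported T/C.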

Setting [1] is: dose: 100.0 mg/kg/injection, schedule: Q04DX003 (ip), vehicle: saline with Tween-80.
[2] abbreviates: dose: 200.0 mg/kg/injection, schedule: Q04DX003 (ip), vehicle: saline with Tween-80.
[3] abbreviates: dose: 25.0 mg/kg/injection, schedule: Q04DX003 (ip), vehicle: saline.
Setting [4] is: dose: 50.0 mg/kg/injection, schedule: Q04DX003 (ip), vehicle: saline.
The mark [5] stands for this setting: dose: 100.0 mg/kg/injection, schedule: Q01DX009 (ip), vehicle: Klucel (hydroxypropylcellulose) (HPC).
Setting [6] is: dose: 200.0 mg/kg/injection, schedule: Q01DX009 (ip), vehicle: Klucel (hydroxypropylcellulose) (HPC).
Setting [7] is: dose: 400.0 mg/kg/injection, schedule: Q01DX009 (ip), vehicle: Klucel (hydroxypropylcellulose) (HPC).
[8] abbreviates: dose: 400.0 mg/kg/injection, schedule: Q04DX003 (ip), vehicle: saline with Tween-80.
The mark [9] stands for this setting: dose: 60.0 mg/kg/injection, schedule: Q01DX009 (ip), vehicle: saline with Tween-80.
Setting [10] is: dose: 25.0 mg/kg/injection, schedule: Q04DX003 (ip), vehicle: Klucel (hydroxypropylcellulose) (HPC).
Setting [11] is: dose: 50.0 mg/kg/injection, schedule: Q04DX003 (ip), vehicle: Klucel (hydroxypropylcellulose) (HPC).
[12] abbreviates: dose: 100.0 mg/kg/injection, schedule: Q04DX003 (ip), vehicle: Klucel (hydroxypropylcellulose) (HPC).

Where “and” joins values, the source holds several entries; their conditions need not be identical. Equal values may be shown once. Toxic doses and inconclusive results are not listed.

For `O=C(CSCC(=O)c1ccc(Br)cc1)c1ccc(Br)cc1`, the T/C reads like this: (dose: 100.0 mg/kg/injection, schedule: Q01DX001 (ip), vehicle: Klucel (hydroxypropylcellulose) (HPC)) 100 % of control; (dose: 200.0 mg/kg/injection, schedule: Q01DX001 (ip), vehicle: Klucel (hydroxypropylcellulose) (HPC)) 100 % of control; (dose: 400.0 mg/kg/injection, schedule: Q01DX001 (ip), vehicle: Klucel (hydroxypropylcellulose) (HPC)) 100 % of control.
On to `CC(=O)CC(Cl)(C(F)(F)F)C(F)(F)F`, for which the T/C is 100 % of control (dose: 50.0 mg/kg/injection, schedule: Q04DX003 (ip), vehicle: saline with Tween-80); 100 % of control under setting [1]; 109 % of control under setting [2].
With `CC(C)C(Br)C(N)=O` (stereo not drawn), the T/C is 104 % of control (dose: 12.5 mg/kg/injection, schedule: Q04DX003 (ip), vehicle: saline); 109 % of control under setting [3]; 109 % of control under setting [4].
As for `C[C@@H]1C[C@@]2(C)C(=CC1=O)CC[C@@H]1C2=CC[C@@]2(C)[C@H]1CC[C@]2(C)O`, the T/C runs as follows: under setting [5], 100 % of control and 110 % of control; (dose: 100.0 mg/kg/injection, schedule: Q04DX003 (ip), vehicle: alcohol) 100 % of control; under setting [6], 90 % of control and 100 % of control; (dose: 200.0 mg/kg/injection, schedule: Q04DX003 (ip), vehicle: alcohol) 105 % of control; under setting [7], 90 % of control and 113 % of control; (dose: 400.0 mg/kg/injection, schedule: Q04DX003 (ip), vehicle: alcohol) 95 % of control.
On to `CCC1CC2CCC(c3cc4c(cc3OC)N(C)C3C(O)(C(=O)OC)C(OC(C)=O)C5(CC)C=CCN6CCC43C65)c3[nH]c4ccccc4c3CCN(C1)C2` (stereo not drawn), for which the T/C is 90 % of control (dose: 0.03 mg/kg/injection, schedule: Q01DX010 (ip), vehicle: saline); 100 % of control (dose: 0.06 mg/kg/injection, schedule: Q01DX010 (ip), vehicle: saline); 90 % of control (dose: 0.13 mg/kg/injection, schedule: Q01DX010 (ip), vehicle: saline); 100 % of control (dose: 0.25 mg/kg/injection, schedule: Q01DX010 (ip), vehicle: saline); 95 % of control (dose: 0.5 mg/kg/injection, schedule: Q01DX010 (ip), vehicle: saline).
Turning to `NOCc1ccsn1`, the T/C runs as follows: (dose: 200.0 mg/kg/injection, schedule: Q04DX003 (ip), vehicle: other) 95 % of control; (dose: 400.0 mg/kg/injection, schedule: Q04DX003 (ip), vehicle: other) 90 % of control.
Turning to `CC(C)C1=CC23CCC4C(C)(C(N)=O)CCCC4(C)C2CC1C1C(=O)OC(=O)C13` (stereo not drawn), the T/C (dose: 12.5 mg/kg/injection, schedule: Q01DX001 (ip), vehicle: saline with Tween-80) is 100 % of control; the T/C (dose: 25.0 mg/kg/injection, schedule: Q01DX001 (ip), vehicle: saline with Tween-80) is 108 % of control; the T/C (dose: 50.0 mg/kg/injection, schedule: Q01DX001 (ip), vehicle: saline with Tween-80) is 104 % of control.
Take `Cc1ccc(CCCCCCCCCCCC(=O)O)cc1`: the T/C by setting is: (dose: 100.0 mg/kg/injection, schedule: Q01DX009 (ip), vehicle: saline with Tween-80) 96 % of control; under setting [1], 95 % of control; (dose: 200.0 mg/kg/injection, schedule: Q01DX009 (ip), vehicle: saline with Tween-80) 92 % of control; under setting [2], 100 % of control; (dose: 400.0 mg/kg/injection, schedule: Q01DX009 (ip), vehicle: saline with Tween-80) 107 % of control; under setting [8], 110 % of control.
With `CCc1c(C(OC)OC)[nH]c(=S)[nH]c1=O`, the T/C is 91 % of control under setting [1], 91 % of control under setting [2] and 87 % of control under setting [8].
On to `CC(Br)C(=O)NC(C)C(=O)O` (stereo not drawn), for which the T/C under setting [1] is 100 % of control, the T/C under setting [2] was 109 % of control and the T/C under setting [8] is 118 % of control.
Consider `CCOC(=O)c1[nH]cnc1/N=N/N(C)C`, for which the T/C was 175 % of control (dose: 26.4 mg/kg/injection, schedule: Q01DX009 (ip), vehicle: saline with Tween-80) and 87 % of control under setting [9].
With `CCNC(=S)N/N=C/c1ccc[nH]1`, the T/C is, setting by setting: (dose: 15.0 mg/kg/injection, schedule: Q01DX009 (ip), vehicle: saline with Tween-80) 104 % of control; (dose: 30.0 mg/kg/injection, schedule: Q01DX009 (ip), vehicle: saline with Tween-80) 88 % of control; under setting [9], 101 % of control.
As for `O=C1CC2(C(=O)N1CN(Cc1ccccc1)Cc1ccccc1)c1ccccc1-c1ccccc12`, the T/C runs as follows: (dose: 100.0 mg/kg/injection, schedule: Q04DX002 (ip), vehicle: saline with Tween-80) 87 % of control; (dose: 200.0 mg/kg/injection, schedule: Q04DX002 (ip), vehicle: saline with Tween-80) 86 % of control; (dose: 400.0 mg/kg/injection, schedule: Q04DX002 (ip), vehicle: saline with Tween-80) 93 % of control.
Consider `O=CNC(Cc1ccc(O)cc1)C(=O)O` (stereo not drawn), for which the T/C is 110 % of control (dose: 100.0 mg/kg/injection, schedule: Q04DX003 (ip), vehicle: saline); 100 % of control (dose: 200.0 mg/kg/injection, schedule: Q04DX003 (ip), vehicle: saline); 100 % of control (dose: 400.0 mg/kg/injection, schedule: Q04DX003 (ip), vehicle: saline).
Take `CN(C)CCNc1ccc([N+](=O)[O-])c2sc3ccccc3c(=O)c12`: the T/C was 107 % of control (dose: 7.5 mg/kg/injection, schedule: Q01DX009 (ip), vehicle: Klucel (hydroxypropylcellulose) (HPC)); 115 % of control (dose: 11.0 mg/kg/injection, schedule: Q01DX009 (ip), vehicle: Klucel (hydroxypropylcellulose) (HPC)); 108 % of control (dose: 12.5 mg/kg/injection, schedule: Q04DX003 (ip), vehicle: Klucel (hydroxypropylcellulose) (HPC)); 108 % of control (dose: 17.0 mg/kg/injection, schedule: Q01DX009 (ip), vehicle: Klucel (hydroxypropylcellulose) (HPC)); 157 % of control and 166 % of control (dose: 25.0 mg/kg/injection, schedule: Q01DX009 (ip), vehicle: Klucel (hydroxypropylcellulose) (HPC)); 116 % of control under setting [10]. Also, the T/C was 92 % of control and 108 % of control (dose: 37.0 mg/kg/injection, schedule: Q01DX009 (ip), vehicle: Klucel (hydroxypropylcellulose) (HPC)); 91 % of control (dose: 50.0 mg/kg/injection, schedule: Q01DX009 (ip), vehicle: Klucel (hydroxypropylcellulose) (HPC)); 162 % of control under setting [11].
With `O=P(N1CCCCCC1)(N1CC1)N1CC1`, the T/C is, setting by setting: (dose: 5.0 mg/kg/injection, schedule: Q01DX009 (ip), vehicle: saline) 168 % of control; (dose: 6.25 mg/kg/injection, schedule: Q04DX003 (ip), vehicle: saline) 95 % of control; (dose: 7.0 mg/kg/injection, schedule: Q04DX003 (ip), vehicle: saline) 112 % of control; (dose: 8.0 mg/kg/injection, schedule: Q01DX009 (ip), vehicle: saline) 157 % of control and 222 % of control; (dose: 11.0 mg/kg/injection, schedule: Q04DX003 (ip), vehicle: saline) 150 % of control; (dose: 16.5 mg/kg/injection, schedule: Q04DX003 (ip), vehicle: saline) 180 % of control. Further, the T/C runs as follows: (dose: 17.0 mg/kg/injection, schedule: Q04DX003 (ip), vehicle: saline) 166 % of control and 181 % of control; under setting [3], 218 % of control [middle of 4 runs]; under setting [4], 162 % of control.
`Oc1ccc(O)cc1`: the T/C is, setting by setting: under setting [10], 106 % of control; (dose: 50.0 mg/kg/injection, schedule: Q01DX009 (ip), vehicle: saline) 112 % of control; under setting [11], 110 % of control; (dose: 66.0 mg/kg/injection, schedule: Q01DX009 (ip), vehicle: saline) 100 % of control; under setting [12], 112 % of control.
Turning to `Cc1ccc(C(Br)C2=CC(C)(C)c3ccccc3C2=O)cc1` (stereo not drawn), the T/C is, setting by setting: under setting [5], 118 % of control; under setting [12], 95 % of control; under setting [6], 90 % of control and 95 % of control; (dose: 200.0 mg/kg/injection, schedule: Q04DX003 (ip), vehicle: Klucel (hydroxypropylcellulose) (HPC)) 113 % of control; (dose: 300.0 mg/kg/injection, schedule: Q01DX009 (ip), vehicle: Klucel (hydroxypropylcellulose) (HPC)) 113 % of control; under setting [7], 100 % of control. Moreover, the T/C (dose: 400.0 mg/kg/injection, schedule: Q04DX003 (ip), vehicle: Klucel (hydroxypropylcellulose) (HPC)) was 113 % of control.
